{"source": "patent US10961247B2", "about": "“Pyrazolopyrimidine derivatives as kinase inhibitor” (Daewoong Pharmaceutical Co., Ltd., priority 2016, dated 2021)", "key": {"[1]": {"biological_target": "Recombinant purified human BTK (Homo sapiens (Human), UniProt Q06187)", "sequence (Q06187 whole entry)": "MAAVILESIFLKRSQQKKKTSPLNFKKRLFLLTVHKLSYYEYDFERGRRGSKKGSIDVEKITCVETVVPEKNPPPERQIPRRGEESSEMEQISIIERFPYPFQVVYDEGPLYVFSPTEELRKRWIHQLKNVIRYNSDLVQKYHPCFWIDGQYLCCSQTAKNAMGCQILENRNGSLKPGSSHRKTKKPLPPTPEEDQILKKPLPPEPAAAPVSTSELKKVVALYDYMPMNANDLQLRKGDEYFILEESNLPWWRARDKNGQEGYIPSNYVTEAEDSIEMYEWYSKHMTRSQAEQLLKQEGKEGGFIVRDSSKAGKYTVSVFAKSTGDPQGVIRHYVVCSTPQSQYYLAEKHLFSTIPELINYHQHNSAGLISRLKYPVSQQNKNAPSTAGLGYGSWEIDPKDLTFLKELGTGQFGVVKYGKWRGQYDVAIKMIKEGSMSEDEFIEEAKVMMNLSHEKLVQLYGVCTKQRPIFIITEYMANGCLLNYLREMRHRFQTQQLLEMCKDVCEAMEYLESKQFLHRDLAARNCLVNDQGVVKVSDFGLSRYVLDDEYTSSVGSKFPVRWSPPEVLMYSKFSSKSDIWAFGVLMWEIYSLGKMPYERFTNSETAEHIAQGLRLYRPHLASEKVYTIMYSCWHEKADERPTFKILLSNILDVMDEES", "assay": "BTK enzyme inhibitory activity, ADP Glo kinase assay (Promega V9071)", "format": "biochemical", "details": "for IC50: ATP 10 uM, 1 hour 30° C.; for inhibition at 0.1 µM: 100 nM compound", "description": "(§1) JAK3 and BTK kinase inhibitory activities were measured for the compounds prepared in the above Examples through in vitro analysis on the ADP Glow (Glo) platform.\n(§2) Specifically, the inhibitory activities of JAK3 and BTK kinase were measured using a JAK3 kinase assay kit (Promega, V9441) and a BTK kinase assay kit (Promega, V9071) which were purchased from Promega. Recombinant purified human JAK3 and BTK were diluted with 1×kinase reaction buffer (JAK3: 40 mM Tris-Cl, pH 7.5, 20 mM MgCl2, 0.1 mg/mL BSA and 50 uM DTT/BTK: 40 mM Tris-Cl, pH 7.5, 20 mM MgCl2, 0.1 mg/mL BSA, 2 mM MnCl2 and 50 uM DTT) and added to a 96 well plate (JAK3: final concentration of 4 ng per reaction/BTK: final concentration of 8 ng per reaction). The compounds were treated so as to be finally a 1% DMSO aqueous solution, and a substrate cocktail containing ATP (JAK3: final concentration of 5 uM/BTK: final concentration of 10 uM) and 0.2 μg/μL of Poly(Glu4, Tyr1) peptide (JAK3 and BTK final concentration) in the total […] reactants was added to a 96-well plate to initiate enzymatic reaction. After incubation (30° C.) for 1 hour, equivalent volume ([…] per reaction) of ADP Glo was added and incubated (30° C.) for 40 minutes at room temperature. Then, a kinase detection reagent ([…] per reaction) was added and incubated (30° C.) for 30 minutes at room temperature. The kinase activity was measured by chemiluminescence according to the instructions of ADP Glo kinase assay kit, and the inhibitory activity of the compounds according to the present invention was calculated. For the analysis of the results of each compound, Microsoft Excel was used, and IC50 values were calculated by SigmaPlot software."}, "[2]": {"biological_target": "Recombinant purified human JAK3 (Homo sapiens (Human), UniProt P52333)", "sequence (P52333 whole entry)": "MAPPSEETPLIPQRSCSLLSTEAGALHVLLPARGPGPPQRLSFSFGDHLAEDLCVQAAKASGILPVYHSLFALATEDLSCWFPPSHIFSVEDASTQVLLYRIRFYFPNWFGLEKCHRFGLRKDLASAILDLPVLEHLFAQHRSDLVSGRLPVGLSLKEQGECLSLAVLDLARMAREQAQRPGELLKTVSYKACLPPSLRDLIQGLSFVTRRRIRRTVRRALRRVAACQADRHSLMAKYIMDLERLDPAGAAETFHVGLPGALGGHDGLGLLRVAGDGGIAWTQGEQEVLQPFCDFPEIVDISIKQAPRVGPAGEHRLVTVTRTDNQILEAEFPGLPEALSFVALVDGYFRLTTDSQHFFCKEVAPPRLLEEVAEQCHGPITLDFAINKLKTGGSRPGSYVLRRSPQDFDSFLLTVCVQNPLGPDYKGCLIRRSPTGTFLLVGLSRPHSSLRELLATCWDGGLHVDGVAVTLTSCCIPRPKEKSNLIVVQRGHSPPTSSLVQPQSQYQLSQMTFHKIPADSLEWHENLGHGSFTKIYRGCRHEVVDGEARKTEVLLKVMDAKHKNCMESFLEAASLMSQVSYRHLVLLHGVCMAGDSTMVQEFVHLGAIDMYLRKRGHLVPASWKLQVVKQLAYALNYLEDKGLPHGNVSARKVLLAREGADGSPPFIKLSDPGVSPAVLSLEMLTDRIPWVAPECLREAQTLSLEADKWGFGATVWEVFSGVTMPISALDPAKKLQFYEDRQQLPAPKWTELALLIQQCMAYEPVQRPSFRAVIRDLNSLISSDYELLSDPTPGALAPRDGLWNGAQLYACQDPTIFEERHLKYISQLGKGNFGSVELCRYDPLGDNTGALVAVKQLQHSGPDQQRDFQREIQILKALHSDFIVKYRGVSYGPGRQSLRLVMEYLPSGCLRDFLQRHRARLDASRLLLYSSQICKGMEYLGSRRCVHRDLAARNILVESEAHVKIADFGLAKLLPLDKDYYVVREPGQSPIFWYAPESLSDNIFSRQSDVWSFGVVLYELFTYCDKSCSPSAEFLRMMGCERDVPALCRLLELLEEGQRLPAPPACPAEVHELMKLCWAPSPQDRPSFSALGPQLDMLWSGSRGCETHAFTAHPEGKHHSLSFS", "assay": "JAK3 enzyme inhibitory activity, ADP Glo kinase assay (Promega V9441)", "format": "biochemical", "details": "ATP 5 uM, 1 hour 30° C.", "description": "as §1, §2"}}}
{"smiles": "CC#CC(=O)N1CCC[C@@H](Nc2nc(Nc3ccc(N4CCN(C)CC4)cc3)nc3[nH]cc(Cl)c23)C1", "note": "[Example 143, (R)-1-(3-((5-chloro-2-((4-(4-methylpiperazin-1-yl)phenyl)amino)-7H-pyrrolo[2,3-d]pyrimidin-4-yl)amino)piperidin-1-yl)but-2-yn-1-one]", "values": [{"measurement": "IC50", "setting": "[1]", "value": 165, "unit": "nM"}, {"measurement": "IC50", "setting": "[2]", "value": 19.3, "unit": "nM"}]}
{"smiles": "C=CC(=O)N1CC[C@@H](C)[C@@H](N(C)c2nc(Nc3ccc(N4CCN(C)CC4)cc3)nc3[nH]ccc23)C1", "note": "[Example 27, 1-((3R,4R)-4-methyl-3-(methyl(2-(4-(4-methylpiperazin-1-yl)phenylamino)-7H-pyrrolo[2,3-d]pyrimidin-4-yl)amino)piperidin-1-yl)prop-2-en-1-one]", "values": [{"measurement": "inhibition at 0.1 µM", "setting": "[1]", "value": 48, "unit": "%"}]}
{"smiles": "C=CC(=O)N1CCC[C@@H](Nc2nc(Nc3cnn(CC)c3)nc3[nH]nc(Cl)c23)C1", "note": "[Example 46, (R)-1-(3-(3-chloro-6-(1-ethyl-1H-pyrazol-4-ylamino)-1H-pyrazolo[3,4-d]pyrimidin-4-ylamino)piperidin-1-yl)prop-2-en-1-one]", "values": [{"measurement": "IC50", "setting": "[1]", "value": 2, "unit": "nM"}, {"measurement": "IC50", "setting": "[2]", "value": 0.6, "unit": "nM"}]}
{"smiles": "C=CC(=O)N1CC[C@@H](C)[C@@H](Nc2nc(Nc3cnn(CC)c3)nc3[nH]ccc23)C1", "note": "[Example 107, 1-((3R,4R)-3-((2-((1-ethyl-1H-pyrazol-4-yl)amino)-7H-pyrrolo[2,3-d]pyrimidin-4-yl)amino)-4-methylpiperidin-1-yl)prop-2-en-1-one]", "values": [{"measurement": "IC50", "setting": "[1]", "value": 7.8, "unit": "nM"}, {"measurement": "IC50", "setting": "[2]", "value": 3.7, "unit": "nM"}]}
{"smiles": "C=CC(=O)NC1CCCC(Nc2nc(Nc3ccc(N4CCN(C)CC4)cc3)nc3[nH]ccc23)C1", "note": "(stereo not shown) [Example 29, N-(3-(2-(4-(4-methylpiperazin-1-yl)phenylamino)-7H-pyrrolo[2,3-d]pyrimidin-4-ylamino)cyclohexyl)acrylamide]", "values": [{"measurement": "inhibition at 0.1 µM", "setting": "[1]", "value": 47.1, "unit": "%"}]}
{"smiles": "C=CC(=O)N1CCC[C@@H](Nc2nc(Nc3cnoc3)nc3[nH]nc(SC)c23)C1", "note": "[Example 130, (R)-1-(3-((6-(isoxazol-4-ylamino)-3-(methylthio)-1H-pyrazolo[3,4-d]pyrimidin-4-yl)amino)piperidin-1-yl)prop-2-en-1-one]", "values": [{"measurement": "IC50", "setting": "[1]", "value": 1.1, "unit": "nM"}, {"measurement": "IC50", "setting": "[2]", "value": 9, "unit": "nM"}]}
{"smiles": "C[C@@H]1CCN(C(=O)CC#N)C[C@@H]1N(C)c1nc(Nc2ccc(N3CCN(C)CC3)cc2)nc2[nH]ccc12", "note": "[Example 28, 3-((3R,4R)-4-methyl-3-(methyl(2-(4-(4-methylpiperazin-1-yl)phenylamino)-7H-pyrrolo[2,3-d]pyrimidin-4-yl)amino)piperidin-1-yl)-3-oxopropanenitrile]", "values": [{"measurement": "inhibition at 0.1 µM", "setting": "[1]", "value": 3.3, "unit": "%"}]}
{"smiles": "C=CC(=O)N1CCC[C@@H](Sc2nc(Nc3cnn(CC)c3)nc3[nH]cc(Cl)c23)C1", "note": "[Example 109, (R)-1-(3-((5-chloro-2-((1-ethyl-1H-pyrazol-4-yl)amino)-7H-pyrrolo[2,3-d]pyrimidin-4-yl)thio)piperidin-1-yl)prop-2-en-1-one]", "values": [{"measurement": "IC50", "setting": "[1]", "value": 2, "unit": "nM"}, {"measurement": "IC50", "setting": "[2]", "value": 0.3, "unit": "nM"}]}
